System: Antibody A specific for cortisol (clone 16DC/17.7, IgG1κ)
Test: LOCI competitive cortisol immunoassay, cross-reactivity screening with Biotinylated Antibody A Reagent
Format: binding
Settings: 100% A Biotinylated Antibody; steroid-stripped serum with cortisol (5 ng/dL)
Protocol: (§1) The antibodies were subjected to analytical size exclusion chromatography prior to any manipulations.
(§2) NHS-PEO4-Biotin was dissolved fresh at 10 mg/mL in Antibody Dialysis Buffer. […] The mixture was rocked at 25° C. for exactly 3 hours. A 200 mM solution of glycine was prepared by dissolving 750 mg glycine in Antibody Dialysis Buffer to a total volume of 50 mL. At the end of the 3-hour biotinylation reaction, 1.52 mL of the 200 mM glycine solution was added to the reaction mixture. The quenched reaction mixture was rocked an additional 60 minutes at 25° C.
(§3) The biotinylated antibody was then purified using preparatory HPLC using Antibody Dialysis Buffer as the mobile phase. […] This reagent was designated as the Biotinylated Antibody Reagent.
(§4) The assay used for screening purposes was conducted on the DIMENSION® VISTA® instrument (system) (Siemens Healthcare Diagnostics Inc., Newark Del.). Initially, 20 μL Biotinylated Antibody Reagent with 15 μL system water was added to the vessel. After 22 seconds, 15 μL sample with 15 μL system water were added to the vessel. After almost 4 minutes, 20 μL Chemibead Reagent with 15 μL system water were added to the vessel. Approximately 7 minutes later, 20 μL Sensibead Reagent with 135 μL system water was added to the vessel. The LOCI® read was taken after approximately 5 minutes. The assay from the first reagent addition to the final read took approximately 16 minutes. The contents of the vessel when the final read is taken were as follows: 2 ng/mL Biotinylated Antibody Reagent, 4 μg/mL Chemibead Reagent, 56 μg/mL Sensibead Reagent, and […] sample. The assay is a competitive format, which means that the greater the concentration of analyte in the sample, the smaller is the signal generation. This is because a detectable complex is formed by the Biotinylated Antibody Reagent, Chemibead Reagent, and Sensibead Reagent in the absence of analyte. The presence of analyte decreases the proportion of Biotinylated Antibody Reagent that is free to form detectable complexes.
(§5) Initial testing used Biotinylated Antibody A Reagent with the other reagents and the methodology described above to analyze the steroid-stripped serum with cortisol. The panel of 34 cross-reactants were individually added to the steroid-stripped serum with a defined concentration of cortisol (5 ng/dL) and assayed. Cross-reactivity data were calculated as follows:
(§6) [formula] The same testing was performed using Biotinylated Antibody L Reagent. The compilation of the percent cross-reactivities for the 34 compounds is referred to as the cross-reactivity profile. The apparent cortisol concentration is the cortisol value obtained when testing a sample containing cortisol and the interfering substance by the above test method that also detects the interfering substance to some degree.

SMILES | percent cross reactivity [%]
C[C@]12CC[C@@H](O)C[C@H]1CC[C@@H]1[C@@H]2C(=O)C[C@@]2(C)[C@H]1CC[C@]2(O)[C@H](O)CO [β-cortolone] | 0.0
C[C@]12CCC(=O)C=C1CC[C@@H]1[C@@H]2[C@@H](O)C[C@@]2(C)[C@H]1CC[C@]2(O)[C@H](O)CO [20β-dihydrocortisol] | 0.6
C[C@]12CCC(=O)C=C1CC[C@@H]1[C@@H]2CC[C@@]2(C)[C@H]1CC[C@]2(O)C(=O)CO [11-deoxycortisol] | 39.8
C[C@]12CCC(=O)C[C@H]1CC[C@@H]1[C@@H]2[C@@H](O)C[C@@]2(C)[C@H]1CC[C@]2(O)C(=O)CO [5β-dihydrocortisol] | 0.4
C[C@]12C=CC(=O)C=C1CC[C@@H]1[C@@H]2[C@@H](O)C[C@@]2(C)[C@H]1CC[C@]2(O)C(=O)CO [prednisolone] | 13.6
CC(=O)OCC(=O)[C@@]1(O)CC[C@H]2[C@@H]3CCC4=CC(=O)CC[C@]4(C)[C@@]3(F)[C@@H](O)C[C@@]21C [fluorocortisone acetate] | 35.3
C[C@]12CC[C@@H](O)C[C@H]1CC[C@@H]1[C@@H]2[C@@H](O)C[C@@]2(C)[C@H]1CC[C@]2(O)C(=O)CO [tetrahydrocortisol] | 0.0
CC(=O)[C@@]1(O)CC[C@H]2[C@@H]3CCC4=CC(=O)CC[C@]4(C)[C@H]3[C@@H](O)C[C@@]21C [21-deoxycortisol] | 8.3
C[C@]12CC[C@@H](O)C[C@H]1CC[C@@H]1[C@@H]2C(=O)C[C@@]2(C)[C@H]1CC[C@]2(O)C(=O)CO [tetrahydrocortisone] | 0.5
CC(=O)[C@@]1(O)CC[C@H]2[C@@H]3CCC4=CC(=O)CC[C@]4(C)[C@H]3C(=O)C[C@@]21C [21-deoxycortisone] | 36.4

System: Antibody L specific for cortisol (clone XM210, IgG2a)
Test: LOCI competitive cortisol immunoassay, cross-reactivity screening with Biotinylated Antibody L Reagent
Format: binding
Settings: 100% L Biotinylated Antibody; steroid-stripped serum with cortisol (5 ng/dL)
Protocol: as §1, §2, §3, §4, §5, §6

SMILES | percent cross reactivity [%]
C[C@]12CC[C@@H](O)C[C@H]1CC[C@@H]1[C@@H]2C(=O)C[C@@]2(C)[C@H]1CC[C@]2(O)[C@H](O)CO [β-cortolone] | 0.0
C[C@]12CCC(=O)C=C1CC[C@@H]1[C@@H]2[C@@H](O)C[C@@]2(C)[C@H]1CC[C@]2(O)[C@H](O)CO [20β-dihydrocortisol] | 2.1
C[C@]12CCC(=O)C=C1CC[C@@H]1[C@@H]2CC[C@@]2(C)[C@H]1CC[C@]2(O)C(=O)CO [11-deoxycortisol] | 1.7
C[C@]12CCC(=O)C[C@H]1CC[C@@H]1[C@@H]2[C@@H](O)C[C@@]2(C)[C@H]1CC[C@]2(O)C(=O)CO [5β-dihydrocortisol] | 1.3
C[C@]12C=CC(=O)C=C1CC[C@@H]1[C@@H]2[C@@H](O)C[C@@]2(C)[C@H]1CC[C@]2(O)C(=O)CO [prednisolone] | 10.2
CC(=O)OCC(=O)[C@@]1(O)CC[C@H]2[C@@H]3CCC4=CC(=O)CC[C@]4(C)[C@@]3(F)[C@@H](O)C[C@@]21C [fluorocortisone acetate] | 69.3
C[C@]12CC[C@@H](O)C[C@H]1CC[C@@H]1[C@@H]2[C@@H](O)C[C@@]2(C)[C@H]1CC[C@]2(O)C(=O)CO [tetrahydrocortisol] | 0.1
CC(=O)[C@@]1(O)CC[C@H]2[C@@H]3CCC4=CC(=O)CC[C@]4(C)[C@H]3[C@@H](O)C[C@@]21C [21-deoxycortisol] | 6.4
C[C@]12CC[C@@H](O)C[C@H]1CC[C@@H]1[C@@H]2C(=O)C[C@@]2(C)[C@H]1CC[C@]2(O)C(=O)CO [tetrahydrocortisone] | 0.1
CC(=O)[C@@]1(O)CC[C@H]2[C@@H]3CCC4=CC(=O)CC[C@]4(C)[C@H]3C(=O)C[C@@]21C [21-deoxycortisone] | 1.4

System: mixture of Biotinylated Antibody A Reagent and Biotinylated Antibody L Reagent
Test: LOCI competitive cortisol immunoassay, cross-reactivity with mixtures of Biotinylated Antibody A and L Reagents
Format: binding
Settings: 70% A 30% L Biotinylated Antibody; steroid-stripped serum with cortisol
Protocol: as §4, §5, §6
A further study was performed by mixing Biotinylated Antibody A Reagent with Biotinylated Antibody L Reagent in a 50:50 mixture; 80% Biotinylated Antibody A Reagent: 20% Biotinylated Antibody L Reagent; 75% Biotinylated Antibody A Reagent: 25% Biotinylated Antibody L Reagent; and 70% Biotinylated Antibody A Reagent: 30% Biotinylated Antibody L Reagent. […] These reagents were used to test cross-reactivity in stripped serum with cortisol.

SMILES | percent cross reactivity [%]
C[C@]12CC[C@@H](O)C[C@H]1CC[C@@H]1[C@@H]2C(=O)C[C@@]2(C)[C@H]1CC[C@]2(O)[C@H](O)CO [β-cortolone] | 0.0
C[C@]12CCC(=O)C=C1CC[C@@H]1[C@@H]2[C@@H](O)C[C@@]2(C)[C@H]1CC[C@]2(O)[C@H](O)CO [20β-dihydrocortisol] | 1.6
C[C@]12CCC(=O)C=C1CC[C@@H]1[C@@H]2CC[C@@]2(C)[C@H]1CC[C@]2(O)C(=O)CO [11-deoxycortisol] | 3.0
C[C@]12CCC(=O)C[C@H]1CC[C@@H]1[C@@H]2[C@@H](O)C[C@@]2(C)[C@H]1CC[C@]2(O)C(=O)CO [5β-dihydrocortisol] | 1.0
C[C@]12C=CC(=O)C=C1CC[C@@H]1[C@@H]2[C@@H](O)C[C@@]2(C)[C@H]1CC[C@]2(O)C(=O)CO [prednisolone] | 12.4
CC(=O)OCC(=O)[C@@]1(O)CC[C@H]2[C@@H]3CCC4=CC(=O)CC[C@]4(C)[C@@]3(F)[C@@H](O)C[C@@]21C [fluorocortisone acetate] | 27.8
C[C@]12CC[C@@H](O)C[C@H]1CC[C@@H]1[C@@H]2[C@@H](O)C[C@@]2(C)[C@H]1CC[C@]2(O)C(=O)CO [tetrahydrocortisol] | 0.1
CC(=O)[C@@]1(O)CC[C@H]2[C@@H]3CCC4=CC(=O)CC[C@]4(C)[C@H]3[C@@H](O)C[C@@]21C [21-deoxycortisol] | 7.2
C[C@]12CC[C@@H](O)C[C@H]1CC[C@@H]1[C@@H]2C(=O)C[C@@]2(C)[C@H]1CC[C@]2(O)C(=O)CO [tetrahydrocortisone] | 0.2
CC(=O)[C@@]1(O)CC[C@H]2[C@@H]3CCC4=CC(=O)CC[C@]4(C)[C@H]3C(=O)C[C@@]21C [21-deoxycortisone] | 2.5

Same assay, conditions: 75% A 25% L Biotinylated Antibody; steroid-stripped serum with cortisol

SMILES | percent cross reactivity [%]
C[C@]12CC[C@@H](O)C[C@H]1CC[C@@H]1[C@@H]2C(=O)C[C@@]2(C)[C@H]1CC[C@]2(O)[C@H](O)CO [β-cortolone] | 0.0
C[C@]12CCC(=O)C=C1CC[C@@H]1[C@@H]2[C@@H](O)C[C@@]2(C)[C@H]1CC[C@]2(O)[C@H](O)CO [20β-dihydrocortisol] | 1.5
C[C@]12CCC(=O)C=C1CC[C@@H]1[C@@H]2CC[C@@]2(C)[C@H]1CC[C@]2(O)C(=O)CO [11-deoxycortisol] | 3.2
C[C@]12CCC(=O)C[C@H]1CC[C@@H]1[C@@H]2[C@@H](O)C[C@@]2(C)[C@H]1CC[C@]2(O)C(=O)CO [5β-dihydrocortisol] | 0.9
C[C@]12C=CC(=O)C=C1CC[C@@H]1[C@@H]2[C@@H](O)C[C@@]2(C)[C@H]1CC[C@]2(O)C(=O)CO [prednisolone] | 12.2
CC(=O)OCC(=O)[C@@]1(O)CC[C@H]2[C@@H]3CCC4=CC(=O)CC[C@]4(C)[C@@]3(F)[C@@H](O)C[C@@]21C [fluorocortisone acetate] | 20.9
C[C@]12CC[C@@H](O)C[C@H]1CC[C@@H]1[C@@H]2[C@@H](O)C[C@@]2(C)[C@H]1CC[C@]2(O)C(=O)CO [tetrahydrocortisol] | 0.1
CC(=O)[C@@]1(O)CC[C@H]2[C@@H]3CCC4=CC(=O)CC[C@]4(C)[C@H]3[C@@H](O)C[C@@]21C [21-deoxycortisol] | 6.9
C[C@]12CC[C@@H](O)C[C@H]1CC[C@@H]1[C@@H]2C(=O)C[C@@]2(C)[C@H]1CC[C@]2(O)C(=O)CO [tetrahydrocortisone] | 0.2
CC(=O)[C@@]1(O)CC[C@H]2[C@@H]3CCC4=CC(=O)CC[C@]4(C)[C@H]3C(=O)C[C@@]21C [21-deoxycortisone] | 2.7

Same assay, conditions: 80% A 20% L Biotinylated Antibody; steroid-stripped serum with cortisol

SMILES | percent cross reactivity [%]
C[C@]12CC[C@@H](O)C[C@H]1CC[C@@H]1[C@@H]2C(=O)C[C@@]2(C)[C@H]1CC[C@]2(O)[C@H](O)CO [β-cortolone] | 0.0
C[C@]12CCC(=O)C=C1CC[C@@H]1[C@@H]2[C@@H](O)C[C@@]2(C)[C@H]1CC[C@]2(O)[C@H](O)CO [20β-dihydrocortisol] | 1.3
C[C@]12CCC(=O)C=C1CC[C@@H]1[C@@H]2CC[C@@]2(C)[C@H]1CC[C@]2(O)C(=O)CO [11-deoxycortisol] | 3.7
C[C@]12CCC(=O)C[C@H]1CC[C@@H]1[C@@H]2[C@@H](O)C[C@@]2(C)[C@H]1CC[C@]2(O)C(=O)CO [5β-dihydrocortisol] | 0.8
C[C@]12C=CC(=O)C=C1CC[C@@H]1[C@@H]2[C@@H](O)C[C@@]2(C)[C@H]1CC[C@]2(O)C(=O)CO [prednisolone] | 12.4
CC(=O)OCC(=O)[C@@]1(O)CC[C@H]2[C@@H]3CCC4=CC(=O)CC[C@]4(C)[C@@]3(F)[C@@H](O)C[C@@]21C [fluorocortisone acetate] | 17.0
C[C@]12CC[C@@H](O)C[C@H]1CC[C@@H]1[C@@H]2[C@@H](O)C[C@@]2(C)[C@H]1CC[C@]2(O)C(=O)CO [tetrahydrocortisol] | 0.0
CC(=O)[C@@]1(O)CC[C@H]2[C@@H]3CCC4=CC(=O)CC[C@]4(C)[C@H]3[C@@H](O)C[C@@]21C [21-deoxycortisol] | 6.9
C[C@]12CC[C@@H](O)C[C@H]1CC[C@@H]1[C@@H]2C(=O)C[C@@]2(C)[C@H]1CC[C@]2(O)C(=O)CO [tetrahydrocortisone] | 0.3
CC(=O)[C@@]1(O)CC[C@H]2[C@@H]3CCC4=CC(=O)CC[C@]4(C)[C@H]3C(=O)C[C@@]21C [21-deoxycortisone] | 3.1
